Measured values taken from patent US10806741B2, “Treatments for free-living amoebic infections” (Profounda, Inc., priority 2018, dated 2020).

How the values were obtained:
[1] = solubility of miltefosine; assay type: physicochemical
Text: The chemical name of miltefosine is 2-[[(hexadecyloxy)hydroxyphosphenyl]oxy]-N,N,N-trimethylethylammonium inner salt, also known as hexadecylphosphocholine, represented by the formula (I). The empirical formula is C21H46NO4P, yielding a molecular weight of 407.57 g/mol.
Thus, according to certain aspects of the presently disclosed invention, the miltefosine may be administered as an oral formulation that is a liquid, such as included in a liquid capsule that may be swallowed, or as a formulation that a patient may drink. The miltefosine may be applied directly to body tissues such as skin or cornea. Alternatively, the miltefosine may be formulated as a solution that may be administered intravenously, such as formulated in a sterile saline solution.

Acanthamoeba [2] = test: patients with Acanthamoeba keratitis treated with systemically administered (oral) miltefosine; assay type: in vivo, human
Text: Such infections have typically been hard to treat as the standard topical treatments generally don't permeate through the various tissue layers to the cysts of the amoeba. […] Previous treatment protocols for Acanthamoeba keratitis have only included topically applied agents such as biocides, and it is not clear from reported results whether cyst reduction was present at the end of these treatment protocols. Moreover, prior to 1996, every patient diagnosed with Acanthamoeba keratitis eventually lost the infected eye.
Since AK is commonly misdiagnosed, the stage of the disease when it is successfully identified varies greatly. […] A major advantage of the presently disclosed methods is that such patients could receive steroids after surgery while also receiving either or both of the systemic and topical formulations of miltefosine, and optional additional second agents.
Medication was discontinued for one week, during which time the patient experienced renewed symptoms.

[3] = in vivo; cited from earlier work
Naegleria fowleri [4] = conditions: Mexico, Arkansas, and Florida patients; cited from earlier work
Acanthamoeba [5] = conditions: topical administration, 160 μM, 28 days treatment; hamsters exposed to Acanthamoeba for 5 days; cited from earlier work
Naegleria fowleri [6] = conditions: Naegleria fowleri in the laboratory; cited from earlier work

Substance: 2-[[(hexadecyloxy)hydroxyphosphenyl]oxy]-N,N,N-trimethylethylammonium inner salt [miltefosine]
- solubility ([1]; aqueous solutions): freely soluble
- solubility ([1]; water, 0.1 N HCl or NaOH, methanol, and ethanol): freely soluble
- efficacy against Acanthamoeba keratitis, active feeding amoeba and cysts in the eyes (Acanthamoeba [2]; oral formulation, over eighty patients, more than a third treated for at least two months): effective to treat Acanthamoeba keratitis and was able to kill both active feeding amoeba and cysts in the eyes
- outcome of case study (AK infection) (Acanthamoeba [2]; patient, oral 50 mg TID just over a month, then 50 mg BID for an additional two months, with short course of oral steroids): clear the AK infection
- half-life [3]: long half-life
- survival of PAM patients (Naegleria fowleri [4]): survived
- complete cure of hamsters (Acanthamoeba [5]): 85%
- amoeba-killing activity (Naegleria fowleri [6]): amoeba-killing activity
